# According to paper PMC8067632, “Assessment and Development of the Antifungal Agent Caspofungin for Aerosolized Pulmonary Delivery” (Pharmaceutics, 2021):
# Tests used:
# [1] = tested on: Aspergillus fumigatus ATCC 13073; experiment: Broth microdilution MEC; assay type: cell-based; details: CLSI broth microdilution, microscopy, duplicate
# Protocol: (§1) Antifungal potency of the test article(s) was measured using the in vitro broth microdilution assay under test conditions described by the Clinical and Laboratory Standards Institute. Minimum Inhibitory Concentration (MIC) is defined as the lowest concentration of an agent that causes a specified reduction in visible growth of the microorganism. Minimum Effective Concentration (MEC) is defined as the lowest concentration of an agent that leads to the growth of small, rounded, compact hyphal forms, as compared to the hyphal growth typically seen in the growth control well. MIC values were determined for 9 Candida spp., and MEC values were determined for filamentous fungus species (Aspergillus fumigatus and Trichophyton rubrum). Details of the test article preparations and methodologies are described in Supplementary Material S1.
# (§2) Following incubation, the test plates were visually examined and wells were scored for growth or complete growth inhibition to define the MIC values. Microscopy examination was used to determine the MEC values. Each test substance was evaluated in duplicate and the results are the duplicate test values. Vehicle-control and an active reference agent were used as blank and positive controls, respectively. […]
# (§3) S1. In Vitro Testing, Test Article Preparations
# (§4) The 5 mg/mL stock solution was prepared as the following. The refrigerated vial was equilibrated to room temperature. Test vial was reconstituted aseptically with 10.5 mL 0.9% NaCl. The powder was dissolved completely, mixing until a clear solution was ob-tained. The final concentration was 5.0 mg/mL of caspofungin freebase. The reconstituted solution was stable for 1 hr at room temperature. The 5 mg/mL stock solution was then […]
# (§5) The refrigerated vial was equilibrated to room temperature. The powder was dis-solved completely, mixing until a clear solution was obtained. Test vial was reconstituted aseptically with 1.8 mL 0.9% NaCl. The white to off-white powder was dissolved com-pletely, mixing gently until a clear solution was obtained. The final concentration was 5.0 mg/mL of caspofungin freebase. The reconstituted solution was used within 1 hr at room temperature. The 5 mg/mL stock solution was then diluted with 0.9% NaCl to prepare the […]
# (§6) 1.3. Caspofungin Diacetate
# (§7) The 5 mg/mL API stock solution was prepared as the following. The refrigerated vial was equilibrated to room temperature. Test vial was filled aseptically with 1.8 mL 0.9%
# (§8) NaCl. The powder was dissolved completely, mixing until a clear solution was obtained.
# (§9) The final concentration was 5.0 mg/mL of caspofungin freebase. The reconstituted solu-tion was used within 1 hr at room temperature. The 5 mg/mL stock solution was then […]
# (§10) g compound, corresponding to 1.2 mg active compound with a correction factor of 2.40 was added 0.375 mL of water for injection to generate the 3.2 mg/mL working stock solution for testing. The 3.2 mg/mL working stock solution was 2-fold diluted seri-ally in 0.9% NaCl to prepare a total of eleven 50-fold stock solutions, concentrations rang-ing from 3.2 to 0.003 mg/mL. A 4 μL aliquot of each dilution was added to 196 μL of broth medium seeded with the organism suspension in wells of a 96 well plate (fungal cell count: 1 x 10^3 to 1 x 10^4 colony forming units per mL). The final volume was 200 μL in each […]
# [2] = tested on: Aspergillus fumigatus ATCC204305; experiment: Broth microdilution MEC; assay type: cell-based; details: CLSI broth microdilution, microscopy, duplicate
# Protocol: as §1, §2, §3, §4, §5, §6, §7, §8, §9, §10
# [3] = tested on: Trichophyton rubrum ATCC 10218; experiment: Broth microdilution MEC; assay type: cell-based; details: CLSI broth microdilution, microscopy, duplicate
# Protocol: as §1, §2, §3, §4, §5, §6, §7, §8, §9, §10
# [4] = Stability of lyophilized formulations by HPLC; assay type: physicochemical; details: caspofungin API lyophilized alone from water, 0 months; HPLC UV 220 nm
# Protocol: Lyophilization was accomplished using a VirTis benchtop manifold lyophilizer (SP Scientific, Stone Ridge, NY, USA) under vacuum of <50 mTorr. […] High-performance liquid chromatography (HPLC) analysis was carried out on a Waters 2695 separations module (Waters Corporation, Milford, MA, USA) equipped with an autosampler and a Waters 996 photodiode array detector. For impurity determinations a Waters Symmetry (Waters Corporation, Milford, MA, USA) C18 3.5 µm, 4.6 × 75 mm column was used. For weight-weight assay a Waters Symmetry C18 Column (Waters Corporation, Milford, MA, USA), 3.5 µm, 4.6 mm × 100 mm column was employed. […] Reconstituted stability analyses were analyzed using the above HPLC methods.
# The stability of the lyophilized formulations was studied under two sets of temperature conditions, 2–5 °C and 25 °C. […] At the specified time points the test articles were reconstituted with normal saline to yield a 10 mg/mL solution for HPLC assay. For comparison, we also lyophilized caspofungin API alone.
# HPLC analysis was carried out on a Waters 2695 separations module equipped with
# an autosampler and a Waters 996 photodiode array detector. The HPLC method is de-
# Column: Waters symmetry C18 3.5 μm, 4.6 x 75 mm
# Column Temperature: 30 °C
# Autosampler temperature: 4 °C
# Mobile phase: A: Add 1.0 mL of perchloric acid and 0.75 g of sodium chloride in 1000
# mL HPLC grade water; B: Acetonitrile. […]
# [5] = tested on: invasive aspergillosis patients; details: cited from earlier work
# From the text: Invasive Pulmonary Aspergillosis (IPA) and Pneumocystis jiroveci Pneumonia (PCP) are serious fungal pulmonary diseases for immunocompromised patients. The brand name drug […]® (Caspofungin acetate for injection) is FDA approved to treat IPA, but is only 40% effective. Efficacious drug levels at the lung infection site are not achieved by systemic administration. Increasing the dose leads to toxicity. The objective, here, is to reformulate caspofungin for aerosolization to high drug concentration by lung targeted delivery and avoid systemic distribution. Described in this paper is a new, ... || Morphologically Aspergillus grows and propagates within the lung cavity. […] This may explain low human efficacy (40%) of caspofungin in treating IPA. Drug concentr ... || Caspofungin for injection (tradename: […]®) is sold by Merck & Co., Inc. The approved […]® dose is a 70 mg loading dose and then 50 mg/daily. Previous intravenous (IV) studies with caspofungin in animals have shown that IV administered drug only delivers about 5% of the drug level in blood to the lungs. […] Most of the IV drugs is distributed to other sensitive target organs, such as the liver and kidneys, which if given in higher doses, can lead ... || (+ 1 further places)
# [6] = IV administration, lung tissue; cited from earlier work
# Protocol: Morphologically Aspergillus grows and propagates within the lung cavity. […] This may explain low human efficacy (40%) of caspofungin in treating IPA. Drug concentr ... || Caspofungin for injection (tradename: […]®) is sold by Merck & Co., Inc. The approved […]® dose is a 70 mg loading dose and then 50 mg/daily. Previous intravenous (IV) studies with caspofungin in animals have shown that IV administered drug only delivers about 5% of the drug level in blood to the lungs. […] Most of the IV drugs is distributed to other sensitive target organs, such as the liver and kidneys, which if given in higher doses, can lead ...
smiles,measurement,setting,value
CC[C@H](C)C[C@H](C)CCCCCCCCC(=O)N[C@H]1C[C@@H](O)[C@@H](NCCN)NC(=O)[C@@H]2[C@@H](O)CCN2C(=O)[C@H]([C@H](O)CCN)NC(=O)[C@H]([C@H](O)[C@@H](O)c2ccc(O)cc2)NC(=O)[C@@H]2C[C@@H](O)CN2C(=O)[C@H]([C@@H](C)O)NC1=O [Caspofungin Diacetate],MEC,[1],0.0625 µg/mL
same,MEC,[2],0.125 µg/mL
same,MEC,[3],0.125 µg/mL
same,HPLC Purity %,[4],95.42%
same,response rate (complete or partial response),"[5]; IPA patients, high dose group 200 mg/day intravenously",60%
same,favorable response,"[5]; IPA patients, standard dose group IV",44%
same,patients presenting with liver toxicity,"[5]; high dose group 200 mg/day IV, elevated liver enzymes and liver failure",65%
same,liver enzyme abnormalities,[5]; standard dose group IV,No liver enzyme abnormalities were observed
same,percentage of IV delivered drug detected in lung,[6],about 5%
